Values joined by “and” are separate entries in the source; they are usually repeats but may differ in a detail not shown here. Equal values may be shown once. Toxic doses and inconclusive results are not listed.
System: BDF1 mice, B16 melanoma ip, median survival T/C
Experiment: NCI In Vivo Anticancer Drug Screen. Data for tumor model B16 Melanoma (intraperitoneal) in B6D2F1 (BDF1) mice
Conditions: endpoint: median survival time, higher = longer survival
How it was run: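 Tumor-bearing mice received test compound or vehicle. Survival or tumor size was then measured in both groups. The treated-group figure was divided by the control-group figure.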

[1] = dose: 100.0 mg/kg/injection, schedule: Q01DX009 (ip), vehicle: Klucel (hydroxypropylcellulose) (HPC)
[2] = dose: 200.0 mg/kg/injection, schedule: Q01DX009 (ip), vehicle: Klucel (hydroxypropylcellulose) (HPC)
[3] = dose: 400.0 mg/kg/injection, schedule: Q01DX009 (ip), vehicle: Klucel (hydroxypropylcellulose) (HPC)
[4] = dose: 12.5 mg/kg/injection, schedule: Q01DX009 (ip), vehicle: saline with Tween-80
[5] = dose: 25.0 mg/kg/injection, schedule: Q01DX009 (ip), vehicle: saline with Tween-80
[6] = dose: 3.12 mg/kg/injection, schedule: Q01DX009 (ip), vehicle: saline
[7] = dose: 6.25 mg/kg/injection, schedule: Q01DX009 (ip), vehicle: saline
[8] = dose: 12.5 mg/kg/injection, schedule: Q01DX009 (ip), vehicle: saline
[9] = dose: 100.0 mg/kg/injection, schedule: Q04DX003 (ip), vehicle: saline with Tween-80
[10] = dose: 50.0 mg/kg/injection, schedule: Q01DX009 (ip), vehicle: saline
[11] = dose: 100.0 mg/kg/injection, schedule: Q01DX009 (ip), vehicle: saline
[12] = dose: 200.0 mg/kg/injection, schedule: Q01DX009 (ip), vehicle: saline
[13] = dose: 25.0 mg/kg/injection, schedule: Q01DX009 (ip), vehicle: saline
[14] = dose: 100.0 mg/kg/injection, schedule: Q01DX009 (ip), vehicle: saline with Tween-80
[15] = dose: 200.0 mg/kg/injection, schedule: Q01DX009 (ip), vehicle: saline with Tween-80
[16] = dose: 400.0 mg/kg/injection, schedule: Q01DX009 (ip), vehicle: saline with Tween-80
[17] = dose: 50.0 mg/kg/injection, schedule: Q01DX009 (ip), vehicle: saline with Tween-80

For COC(=O)/C=C/N1C(=O)c2ccccc2C1=O, the T/C [1] was 91 % of control, the T/C (dose: 135.0 mg/kg/injection, schedule: Q01DX009 (ip), vehicle: Klucel (hydroxypropylcellulose) (HPC)) was 90 % of control and the T/C [2] was 95 % of control. The T/C (dose: 300.0 mg/kg/injection, schedule: Q01DX009 (ip), vehicle: Klucel (hydroxypropylcellulose) (HPC)) was 95 % of control and the T/C [3] was 91 % of control.

For COC1CC(CC2CCC(C)C(C(C)C(=O)O)O2)OC2(OC(C)(C3CCC(C)(C4OC(C5OC(O)(CO)C(C)CC5C)CC4C)O3)CC2C)C1C (configuration not stated), the T/C (dose: 0.31 mg/kg/injection, schedule: Q01DX009 (ip), vehicle: Klucel (hydroxypropylcellulose) (HPC)) was 102 % of control, the T/C (dose: 0.63 mg/kg/injection, schedule: Q01DX009 (ip), vehicle: Klucel (hydroxypropylcellulose) (HPC)) was 89 % of control and the T/C (dose: 1.25 mg/kg/injection, schedule: Q01DX009 (ip), vehicle: Klucel (hydroxypropylcellulose) (HPC)) was 92 % of control. The T/C (dose: 2.5 mg/kg/injection, schedule: Q01DX009 (ip), vehicle: Klucel (hydroxypropylcellulose) (HPC)) was 92 % of control.

CN(C)N=Nc1ccc(S(=O)(=O)Nc2ncccn2)cc1 was tested, and the T/C [4] was 108 % of control, the T/C (dose: 14.7 mg/kg/injection, schedule: Q01DX009 (ip), vehicle: saline with Tween-80) was 110 % of control and the T/C (dose: 22.0 mg/kg/injection, schedule: Q01DX009 (ip), vehicle: saline with Tween-80) was 116 % of control. For the same compound, the T/C [5] was 123 % of control, the T/C (dose: 33.0 mg/kg/injection, schedule: Q01DX009 (ip), vehicle: saline with Tween-80) was 106 % of control and 123 % of control and the T/C (dose: 75.0 mg/kg/injection, schedule: Q01DX009 (ip), vehicle: saline with Tween-80) was 115 % of control.

With CN(C)CCOC(c1ccccc1)c1ccccc1 the T/C [6] was 86 % of control, the T/C [7] was 100 % of control and the T/C [8] was 100 % of control.

C=C(C)[C@]12CC(C)C34OC(/C=C\C=C\CCCCCCCCC)(O[C@@H]1[C@@H]3[C@@H]1O[C@]1(CO)[C@@H](O)[C@]1(O)C(=O)C(C)=C[C@@H]41)O2 (some centres not stated) was tested, and the T/C (dose: 0.09 mg/kg/injection, schedule: Q01DX009 (ip), vehicle: alcohol) was 88 % of control, the T/C (dose: 0.18 mg/kg/injection, schedule: Q01DX009 (ip), vehicle: saline + alcohol) was 98 % of control and the T/C (dose: 0.19 mg/kg/injection, schedule: Q01DX009 (ip), vehicle: alcohol) was 88 % of control. The T/C (dose: 0.37 mg/kg/injection, schedule: Q01DX009 (ip), vehicle: saline + alcohol) was 89 % of control.

In the case of Cc1ccc(Cl)cc1N=Cc1ccccc1O, the T/C [9] is reported as 104 % of control, the T/C (dose: 200.0 mg/kg/injection, schedule: Q04DX003 (ip), vehicle: saline with Tween-80) is reported as 100 % of control and the T/C (dose: 400.0 mg/kg/injection, schedule: Q04DX003 (ip), vehicle: saline with Tween-80) is reported as 104 % of control.

With CN(C)CCCCO the T/C [10] was 96 % of control, the T/C [11] was 96 % of control and the T/C [12] was 89 % of control.

With C=CCN(CC=C)CCN(CC)CC the T/C [7] was 93 % of control, the T/C [8] was 94 % of control and the T/C [13] was 94 % of control. The T/C [10] was 91 % of control.

CCOC(=O)c1cc(-c2ccc(Cl)cc2)nc2c(Cl)cc(Cl)cc12 was tested, and the T/C [14] was 101 % of control, the T/C [15] was 89 % of control and the T/C [16] was 88 % of control.

For O=C(CCl)NC(Cc1ccc(O)cc1)C(=O)O (configuration not stated), the T/C [5] was 105 % of control, the T/C [17] was 101 % of control and the T/C [14] was 95 % of control.

In the case of Nc1nc(-c2ccccc2)c(Br)c(=O)[nH]1, the T/C [16] is reported as 150 % of control.

For CN(C)CCN1C(=O)CC(c2ccccc2)Sc2ccccc21 (configuration not stated), the T/C [6] was 115 % of control, the T/C [7] was 112 % of control and the T/C [8] was 107 % of control. The T/C [13] was 97 % of control.

For O=C/C=C/c1ccc([N+](=O)[O-])cc1, the T/C [5] was 100 % of control.

In the case of Cn1c(=O)c2[nH]c(Cc3cccc(O)c3)nc2n(C)c1=O, the T/C (dose: 3.12 mg/kg/injection, schedule: Q01DX009 (ip), vehicle: suspension in saline) is reported as 94 % of control, the T/C (dose: 6.25 mg/kg/injection, schedule: Q01DX009 (ip), vehicle: suspension in saline) is reported as 96 % of control and the T/C (dose: 100.0 mg/kg/injection, schedule: Q01DX009 (ip), vehicle: suspension in saline) is reported as 94 % of control.

With C/C=C/C=C1/OC(C)=C(C(C)=O)C1=O the T/C [4] was 102 % of control and 111 % of control, the T/C [5] was 102 % of control and the T/C [17] was 102 % of control and 110 % of control. For the same compound, the T/C [14] was 96 % of control and 109 % of control, the T/C [15] was 104 % of control and the T/C [16] was 98 % of control.

For CC(C)(C)OC(=O)N1CCCC1C(=O)Oc1ccc([N+](=O)[O-])cc1 (configuration not stated), the T/C (dose: 25.0 mg/kg/injection, schedule: Q04DX003 (ip), vehicle: saline with Tween-80) was 94 % of control, the T/C (dose: 50.0 mg/kg/injection, schedule: Q04DX003 (ip), vehicle: saline with Tween-80) was 109 % of control and the T/C [9] was 104 % of control.

In the case of COc1ccc(C2=C(c3ccccc3)C(c3ccccc3)=C(c3ccc(OC)cc3)C2=O)cc1, the T/C [17] is reported as 94 % of control, the T/C [14] is reported as 95 % of control and the T/C [15] is reported as 95 % of control. The T/C [16] was 94 % of control.

With NC(Cc1ccc(O)cc1)C(=O)N/N=C/c1ccc(N(CCCl)CCCl)cc1 (configuration not stated) the T/C (dose: 15.0 mg/kg/injection, schedule: Q01DX009 (ip), vehicle: Klucel (hydroxypropylcellulose) (HPC)) was 115 % of control and the T/C (dose: 30.0 mg/kg/injection, schedule: Q01DX009 (ip), vehicle: Klucel (hydroxypropylcellulose) (HPC)) was 120 % of control.

In the case of CCN(CC)C(=O)c1cccnc1, the T/C [8] is reported as 109 % of control, the T/C [13] is reported as 123 % of control and the T/C [10] is reported as 107 % of control. The T/C [11] was 103 % of control and the T/C [12] was 102 % of control.

In the case of O=N[O-].[Co].[NH2-].[NH2-].[NH2-].[NH2-].[NH2-], the T/C [8] is reported as 90 % of control, the T/C (dose: 12.5 mg/kg/injection, schedule: Q04DX003 (ip), vehicle: saline) is reported as 107 % of control and the T/C [13] is reported as 97 % of control. For the same compound, the T/C (dose: 25.0 mg/kg/injection, schedule: Q04DX003 (ip), vehicle: saline) was 105 % of control, the T/C [10] was 100 % of control and the T/C (dose: 50.0 mg/kg/injection, schedule: Q04DX003 (ip), vehicle: saline) was 100 % of control.

In the case of CC1(C)C2CCC1(C)C(COC(=O)c1cc([N+](=O)[O-])cc([N+](=O)[O-])c1)C2 (configuration not stated), the T/C [1] is reported as 96 % of control, the T/C [2] is reported as 93 % of control and the T/C [3] is reported as 87 % of control.

For CC(=O)Oc1[nH]c(=O)c2cccc3c2c1CCC3, the T/C [5] was 106 % of control, the T/C [17] was 107 % of control and the T/C [14] was 115 % of control. For the same compound, the T/C [15] was 114 % of control and the T/C [16] was 105 % of control.

With O=C(/C=C/C(=O)Oc1ccc(Cl)cc1Cl)Oc1ccc(Cl)cc1Cl the T/C (dose: 25.0 mg/kg/injection, schedule: Q01DX009 (ip), vehicle: Klucel (hydroxypropylcellulose) (HPC)) was 100 % of control, the T/C (dose: 50.0 mg/kg/injection, schedule: Q01DX009 (ip), vehicle: Klucel (hydroxypropylcellulose) (HPC)) was 91 % of control and the T/C [1] was 88 % of control and 94 % of control.

In the case of O=C(O)CC[S-].[Ag+], the T/C [13] is reported as 99 % of control, the T/C [10] is reported as 111 % of control and the T/C [11] is reported as 97 % of control.

In the case of COc1cccc(NC(=O)Nc2ccccc2)c1, the T/C [1] is reported as 110 % of control, the T/C [2] is reported as 101 % of control and the T/C [3] is reported as 88 % of control.

O=C(Nc1cccc(C(F)(F)F)c1)NC1CCCCC1 was tested, and the T/C (dose: 100.0 mg/kg/injection, schedule: Q04DX003 (ip), vehicle: gum acacia) was 87 % of control, the T/C (dose: 200.0 mg/kg/injection, schedule: Q04DX003 (ip), vehicle: gum acacia) was 89 % of control and the T/C (dose: 400.0 mg/kg/injection, schedule: Q04DX003 (ip), vehicle: gum acacia) was 87 % of control.

C[CH2][Pb]([CH2]C)([CH2]C)[O]C(=O)COc1ccccc1 was tested, and the T/C (dose: 1.5 mg/kg/injection, schedule: Q01DX009 (ip), vehicle: saline with Tween-80) was 104 % of control, the T/C (dose: 3.0 mg/kg/injection, schedule: Q01DX009 (ip), vehicle: saline with Tween-80) was 107 % of control and the T/C (dose: 6.25 mg/kg/injection, schedule: Q01DX009 (ip), vehicle: saline with Tween-80) was 108 % of control.

O=NN(CCCl)C(=O)NCCO was tested, and the T/C (dose: 3.12 mg/kg/injection, schedule: Q01DX009 (ip), vehicle: water) was 176 % of control.

From PubChem BioAssay AID192 (DTP/NCI, 2004)
